According to patent US6177474A, “Polyhydroxyphenol derivatives and preventive and therapeutic agents for bone and cartilage diseases containing the same” (Hoechst Marion Roussel, priority 1996, dated 2001):

System: bone cells containing osteoclast cells
Test: Pit formation assay: inhibition of osteolysis (absorption pits on ivory slices)
Format: cell-based, ICR mice
Details: for inhibition at 10 µM: Mus musculus, Osteoclast, read-out: Ratio of inhibition (%); for inhibition at 10 µM / Ratio of inhibition (%): 0% = pits with rPTH (1×10^-8 M) without medicine, 100% = no absorption pit; for Ratio of inhibition (%): 4320 min
Method: ICR mice 11-12 days old (purchased from Charles River Japan) were euthanized by anesthesia with ether and immediately immersed in 70% ethanol for disinfection. By the use of ophthalmologist scissors and pincers sterilized in advance with ethanol, femur and tibia were excised from the sacrificed mice and chopped into small pieces in an α-MEM culture medium (purchased from Flow Laboratories Corp.). containing 5% FBS (purchased from Irvine Scientific Corp.), 100 U/ml penicillin and 100 μg/ml streptomycin. The supernatant formed consequently was recovered by pipeting, cleaned with the culture broth, and suspended in a 5% FBS α-MEM culture broth to obtain bone cells containing osteoclast cells. The supernatant of a bone cell-floating liquid formed after 3 minutes' standing of the bone cells at rest was recovered and passed through a mesh (cell strainer, 70 μm, purchased from Falcon Corp.). The filtrate was adjusted to a cell concentration of 1×10^7 /ml and used for the pit formation assay.
An ivory piece was cut into slices, 150 μm in thickness, by the use of a precision low-speed cutting machine (purchased from Buehler Corp.). Cylindrical holes, 6 mm in diameter, were perforated in the slices by the use of a one-hole punch. The ivory slices were immersed in 70% ethanol and subjected therein to an ultrasonic cleaning treatment twice each for five minutes and washed three times with a sterilized PBS and twice with the culture medium. The ivory slices were set in place on a 96-hole culture plate (purchased from Falcon Corp.). The perforated ivory slices on the culture plate, with a culture broth containing a given compound of the present invention prepared in a concentration of 2×10^-5 M added in a fixed volume of 100 μl (final medicine concentration 1×10^-5 M) to each of the holes and a culture broth containing prepared bone cells in a concentration of 1×10^7 /ml placed in each of the holes, were cultured for three days in a 10% CO2 incubator at 37° C. After the culture, the ivory slices were placed in an aqueous 2 N sodium hydroxide and the cells on the slices were removed by the use of a rubber spatula. The ivory slices were washed with water and methanol. The absorption pits formed in the ivory slices were dyed with Coomassie Brilliant Blue and were counted under a microscope. Though the numbers of absorption pits were naturally found to disperse among test lots, depending on the ratios of varying specie s of cells in the bone cell suspensions and the lots of animals used, satisfactorily uniform test results were found in one and the same test lot. The ratio of inhibition of osteolysis was calculated on the 100% scale, in which 0% stands for the number of absorption pits found in the culture broth in the presence of rPTH (1×10^-8 M) and in the absence of a medicine and 100% for total absence of absorption pit.
The test described above was performed in a total of ten runs, Tests 1-10.
In the columns titled "Added medicine No." found in Table 2 and Table 3, the symbol (-) denotes a control involving no addition of medicine and the numerical No. denotes the No. of the compound mentioned above.

[1] = compound 10^-5 M, 3 days culture at 37° C., 10% CO2, control per test run given as (-)

Row | Compound | No. of absorption pits (Mean ± SD) (72 h, 10 µM) | inhibition at 10 µM (72 h, compound 10^-5 M) [%] | No. of absorption pits (Mean ± SD) [1] | Ratio of inhibition (%) (compound 10^-5 M, 10 µM)
1 | CC(C)=CCCC(C)=CCC1=C(O)C(CC=C(C)CCC=C(C)C)(CC=C(C)CCC=C(C)C)C(=O)C(C(=O)Cc2ccccc2)=C1O (centres unmarked) [Compound 44, 3,5-dihydroxy-6-(phenylacetyl)-2,2,4-tris(3,7-dimethyl-2,6-octadienyl)cyclohexa-3,5-dienone] | 7.7 ± 2.0 | 96.6 | – | –
2 | CC(C)=CCC1=C(O)C(O)(CC=C(C)C)C(=O)C(C(=O)c2ccccc2)=C1O (centres unmarked) [Compound 32, 2,4-bis(3-methyl-2-butenyl)-6-benzoyl-2,3,5-trihydroxycyclohexa-3,5-dienone] | 33.9 ± 4.1 | 65.7 | – | –
3 | (2,4,5-trihydroxyphenyl) (2-methylpropyl) ketonemono(3-methyl-2-butenyl) ether [Compound 28] | – | – | 61.3 ± 5.5 | 69.6
4 | CC(C)=CCCC(C)=CCC1(CC=C(C)CCC=C(C)C)C(=O)C(C(=O)CC(C)C)=C(O)C=C1O (centres unmarked) [Compound 21, 2,2-bis(3,7-dimethyl-2,6-octadienyl)-3,5-dihydroxy-6-(3-methyl-1-oxobutyl)cyclohexa-3,5-dienone] | 3.5 ± 1.4 | 98.1 | – | –
5 | CC(C)=CCOc1ccc(C(=O)CC(C)C)c(O)c1 [Compound 53, {2-hydroxy-4-(3-methyl-2-butenyloxy)phenyl} (2-methylpropyl) ketone] | 55.1 ± 11.1 | 67.8 | – | –
6 | CC(C)=CCC1=C(O)C(CC=C(C)C)(CC=C(C)C)C(=O)C(C(=O)Cc2ccccc2)=C1O [Compound 40, 3,5-dihydroxy-6-(phenylacetyl)-2,2,4-tris(3-methyl-2-butenyl)-cyclohexa-3,5-dienone] | 4.9 ± 3.8 | 96.1 | – | –
7 | CC(C)=CCc1cc(C(=O)CC(C)C)c(O)cc1O [Compound 55, {2,4-dihydroxy-5-(3-methyl-2-butenyl)phenyl} (2-methylpropyl)ketone] | 15.8 ± 3.3 | 90.8 | – | –
8 | CC(C)=CCC1=C(O)C(CC=C(C)C)(CC=C(C)C)C(=O)C(C(=O)CC(C)C)=C1O [Compound 16, 3,5-dihydroxy-6-(3-methyl-1-oxobutyl)-2,2,4-tris(3-methyl-2-butenyl)cyclohexa-3,5-dienone] | 0 | 100 | – | –
9 | CC(C)CC(=O)C1=C(O)C(Cc2ccccc2)=C(O)C(Cc2ccccc2)(Cc2ccccc2)C1=O [Compound 36, 2,2,4-trisbenzyl-6-(3-methyl-1-oxobutyl)-3,5-dihydroxycyclohexa-3,5-dienone] | 3.8 ± 0.9 | 98.1 | – | –
10 | CC(C)=CCC1=C(O)C(CC=C(C)C)(CC=C(C)C)C(=O)C(C(=O)CC(C)CCCC(C)C)=C1O (centres unmarked) [Compound 22, 3,5-dihydroxy-6-(3,7-dimethyl-1-oxooctyl)-2,2,4-tris(3-methyl-2-butenyl)cyclohexa-3,5-dienone] | 3.5 ± 1.1 | 98.1 | – | –
11 | CC(C)CC(=O)c1c(O)c(Cc2ccccc2)c(O)c(Cc2ccccc2)c1O [Compound 34, {3,5-bisbenzyl-2,4,6-trihydroxyphenyl} (2-methylpropyl) ketone] | 8.2 ± 1.9 | 95.9 | – | –
12 | CC(C)=CCc1c(O)c(CC=C(C)C)c(O)c(C(=O)Cc2ccccc2)c1O [Compound 39, {3,5-bis(3-methyl-2-butenyl)-2,4,6-trihydroxyphenyl} (phenylmethyl) ketone] | 49.2 ± 9.4 | 72.6 | – | –
13 | CC(C)=CCC1(CC=C(C)C)C(=O)C(C(=O)C(C)C)=C(O)C=C1O [Compound 13, 2,2-bis(3-methyl-2-butenyl)-3,5-dihydroxy-6-(2-methyl-1-oxopropyl)cyclohexa-3,5-dienone] | 16.8 ± 3.6 | 79 | – | –
14 | CC(C)=CCCC(C)=CCC1=C(O)C(CC=C(C)CCC=C(C)C)(CC=C(C)CCC=C(C)C)C(=O)C(C(=O)CC(C)C)=C1O (centres unmarked) [Compound 20, 3,5-dihydroxy-6-(3-methyl-1-oxobutyl)-2,2,4-tris(3,7-dimethyl-2,6-octadienyl)cyclohexa-3,5-dienone] | 3.0 ± 1.3 | 98.4 | – | –
15 | CC(C)=CCC1=C(O)C(O)(CC=C(C)C)C(=O)C(C(=O)C(C)C)=C1O (centres unmarked) [Compound 29, 2,4-bis(3-methyl-2-butenyl)-6-(2-methyl-1-oxopropyl)-2,3,5-trihydroxycyclohexa-3,5-dienone] | 20.3 ± 2.1 | 79.5 | – | –
16 | CC(C)=CCc1c(O)ccc(C(=O)CC(C)C)c1O [Compound 54, (2,4-dihydroxy-3-(3-methyl-2-butenyl)phenyl) (2-methylpropyl) ketone] | 66.5 ± 9.7 | 61.2 | – | –
17 | O=C(Cc1ccccc1)c1c(O)cc(O)cc1O [Compound 38, (phenylmethyl) (2,4,6-trihydroxyphenyl) ketone] | 55.8 ± 7.7 | 57.9 | – | –
18 | CC(C)=CCOc1c(CC=C(C)C)c(C)c(C(=O)CC(C)C)c(O)c1CC=C(C)C [Compound 51, {3,5-bis(3-methyl-2-butenyl)-2-hydroxy-6-methyl-4-(3-methyl-2-butenyloxy)phenyl} (2-methylpropyl) ketone] | 102.7 ± 6.2 | 42.8 | – | –
19 | CC(C)=CCOc1cc(C)c(C(=O)CC(C)C)c(O)c1 [Compound 48, {2-hydroxy-6-methyl-4-(3-methyl-2-butenyloxy)phenyl} (2-methylpropyl) ketone] | 85.2 ± 7.5 | 57.8 | – | –
20 | CC(C)=CCCC(C)=CCc1c(O)c(CC=C(C)CCC=C(C)C)c(O)c(C(=O)Cc2ccccc2)c1O [Compound 43, {3,5-bis(3,7-dimethyl-2,6-octadienyl)-2,4,6-trihydroxyphenyl} (phenylmethyl) ketone] | 11.3 ± 2.5 | 95 | – | –
21 | CC(C)CC(=O)C1=C(O)C(Cc2ccccc2)=C(O)C(O)(Cc2ccccc2)C1=O (centres unmarked) [Compound 33, 2,4-bisbenzyl-6-(3-methyl-1-oxobutyl)-2,3,5-trihydroxycyclohexa-3,5-dienone] | 9.8 ± 1.8 | 95.1 | – | –
22 | CC(C)=CCc1c(O)cc(C)c(C(=O)CC(C)C)c1O [Compound 49, {2,4-dihydroxy-6-methyl-3-(3-methyl-2-butenyl)phenyl} (2-methylpropyl) ketone] | 44.3 ± 5.4 | 78 | – | –
23 | CC(C)=CCCC(C)=CCC1(CC=C(C)CCC=C(C)C)C(=O)C(C(=O)Cc2ccccc2)=C(O)C=C1O (centres unmarked) [Compound 45, 3,5-dihydroxy-6-(phenylacetyl)-2,2-bis(3,7-dimethyl-2,6-octadienyl)cyclohexa-3,5-dienone] | 8.2 ± 1.8 | 96.4 | – | –
24 | Cc1cc(O)cc(O)c1C(=O)CC(C)C [Compound 47, (2,4-dihydroxy-6-methylphenyl) (2-methylpropyl) ketone] | 179.8 ± 23.8 | 10.9 | – | –
25 | {6-(3-methyl-2-butenyl)-2,4,5-trihydroxyphenyl} (2-methylpropyl) ketonemono(3-methyl-2-butenyl) ether [Compound 27] | – | – | 38.8 ± 6.6 | 80.8
